From patent publication US20250019398A1, “NONAMERIC PEPTIDE HAVING EXCELLENT ANTIBACTERIAL ACTIVITY AGAINST GRAM-NEGATIVE BACTERIA AND ENANTIOMER THEREOF” (priority 2021, published 2025) come the findings set out here.

Assay [1] concerns CRAB 12006 (carbapenem-resistant A. baumanii CCARM). Description: MIC, broth dilution. It counts as cell-based, A. baumannii. To be noted: 16 hours, read-out: Minimal inhibitory concentration (MIC), CRAB 12006. The text has this:
(§1) Among the bacterial strains used in the experiment, Escherichia coli KCTC 1682 was obtained from the Korean Collection for Type Cultures (KCTC) (Jeongeup, Korea), Acinetobacter baumannii KCCM 40203 and Pseudomonas aeruginosa KCCM 11328 were obtained from the Korean Culture Center of Microorganisms (KCCM) (Seoul, Korea), and Klebsiella pneumonia NCCP 16054 was obtained from the National Culture Collection for Pathogens (NCCP) (Osong, Korea). In addition, carbapenem-resistant E. coli NCCP16044 and carbapenem-resistant Klebsiella pneumonia NCCP 15782 were obtained from the NCCP, and three types of carbapenem-resistant A. baumanii CCARM 12004-6 were obtained from the Culture Collection of Antimicrobial Resistance Microbes (CCARM) (Cheongju City, Korea). The E. coli K1 (ATCC700973) strain used in the animal experiments was obtained from the American Type Culture Collection (ATCC) ([…]).
(§2) The antimicrobial activities of the peptides were measured by a minimal inhibitory concentration (MIC) analysis. The MIC was determined using a broth dilution method. All bacterial strains were grown overnight at 37° C. in a Muller-Hinton (MH) medium.

In assay [2] the test system is CRAB 12005 (carbapenem-resistant A. baumanii CCARM). Kind of assay: MIC, broth dilution. It counts as cell-based, A. baumannii. The note with it: 16 hours, read-out: Minimal inhibitory concentration (MIC), CRAB 12005.
Text: as §1, §2
In general terms: Broth dilution looks for growth in wells or tubes with falling amounts of substance.

Assay [3] has as its system CRAB 12004 (carbapenem-resistant A. baumanii CCARM). Description: MIC, broth dilution. Format: cell-based, A. baumannii. The note with it: 16 hours, read-out: Minimal inhibitory concentration (MIC), CRAB 12004.
Text: as §1, §2

In assay [4] the test system is Escherichia coli KCTC 1682. Kind of assay: MIC, broth dilution. Format: cell-based. To be noted: standard Gram-negative bacteria, 16 hours, read-out: Minimal inhibitory concentration (MIC), E. coli.
Text: In addition, carbapenem-resistant E. coli NCCP16044 and carbapenem-resistant Klebsiella pneumonia NCCP 15782 were obtained from the NCCP, and three types of carbapenem-resistant A. baumanii CCARM 12004-6 were obtained from the Culture Collection of Antimicrobial Resistance Microbes (CCARM) (Cheongju City, Korea). The E. coli K1 (ATCC700973) strain used in the animal experiments was obtained from the American Type Culture Collection (ATCC) ([…]).
as §2

In another assay the test system is intact CRAB bacteria. Kind of assay: diSC3-5 membrane depolarization. It counts as cell-based, A. baumannii. To be noted: 4 μM. How it is done:
Depolarization ability by peptides was measured using a membrane potential-sensitive dye 3,3′-dipropylthiadicarbocyanine iodide (diSC3-5) using intact CRAB bacteria. CRAB cells were washed using a wash buffer (5 mM HEPES, 20 mM glucose, pH 7.4). The cells were resuspended in a dilution buffer (5 mM HEPES, 20 mM glucose, 0.1 M KCl, pH 7.4) and then cultured with a diSC3-5 dye (1 hour). Finally, the fluorescence changes of cells treated with various concentrations of peptides, a negative control (cells with dye) and a positive control (1% Triton X-100) were recorded using a fluorescence spectrophotometer, and the results are expressed as percent depolarization.

Assay [5] has as its system Acinetobacter baumannii KCCM 40203. Description: MIC, broth dilution. Format: cell-based. The note with it: standard Gram-negative bacteria, 16 hours.
Text: as §1, §2

For assay [6], the system named is Pseudomonas aeruginosa KCCM 11328. Kind of assay: MIC, broth dilution. To be noted: standard Gram-negative bacteria, 16 hours. It counts as cell-based.
Text: as §1, §2

For assay [7], the system named is carbapenem-resistant Klebsiella pneumonia NCCP 15782 (CRKP 15782). Kind of assay: MIC, broth dilution. It counts as cell-based. The note with it: 16 hours.
Text: as §1, §2

Assay [8] deals with Klebsiella pneumonia NCCP 16054. Kind of assay: MIC, broth dilution. Format: cell-based. To be noted: standard Gram-negative bacteria, 16 hours.
Text: as §1, §2

The subject of assay [9] is carbapenem-resistant E. coli NCCP16044 (CREC 16044). Kind of assay: microbe, parasite or virus in culture. Format: cell-based. To be noted: 16 hours, read-out: Minimal inhibitory concentration (MIC), CREC 16044.
Text: as §1, §2

Another assay deals with CRAB 12006. Kind of assay: Crystal violet biofilm inhibition. The note with it: 0-32 μM, 16 h. Format: cell-based, A. baumannii. How it is done:
A crystal-violet-based assay was used to investigate the biofilm inhibition ability of R-Pro9-3D against A. baumannii standard bacteria and a CRAB 12006 line. […] Thereafter, bacterial cells were fixed with methanol (100%, 15 minutes) and then stained with crystal violet (0.1% (w/v) in 0.25% (v/v) acetic acid for 1 hour). The plate was washed with distilled H2O, dried and dissolved in ethanol (100% v/v). Color development, which indicates the extent of biofilm, was measured at 595 nm and expressed as biofilm formation percentage.

In brackets after ≈: the same amount, converted by molar mass. Where two headings read alike, the source gives them in different places.

For the molecule `CC[C@H](C)[C@H](NC(=O)CN)C(=O)NCC(=O)N[C@@H](C)C(=O)N[C@H](C(=O)N[C@@H](CC(C)C)C(=O)N[C@@H](CCCCN)C(=O)N[C@H](C(=O)N[C@@H](CC(C)C)C(=O)N[C@H](C(=O)N[C@H](C(=O)NCC(=O)N[C@@H](CC(C)C)C(=O)N1CCC[C@H]1C(=O)N[C@@H](C)C(=O)N[C@@H](CC(C)C)C(=O)N[C@H](C(=O)N[C@@H](CO)C(=O)N[C@@H](Cc1c[nH]c2ccccc12)C(=O)N[C@H](C(=O)N[C@@H](CCCCN)C(=O)N[C@@H](CCCNC(=N)N)C(=O)N[C@@H](CCCCN)C(=O)N[C@@H](CCCNC(=N)N)C(=O)N[C@@H](CCC(N)=O)C(=O)N[C@@H](CCC(N)=O)C(N)=O)[C@@H](C)CC)[C@@H](C)CC)[C@@H](C)O)[C@@H](C)O)C(C)C)C(C)C` [Melittin], the MIC was found to be 4 µM (≈ 11.4 µg/mL) in [1]; 4 µM (≈ 11.4 µg/mL) in [2]; 4 µM (≈ 11.4 µg/mL) in assay [3]; 8 µM (≈ 22.8 µg/mL) in assay [4]; 8 µM (≈ 22.8 µg/mL) in assay [9]. This molecule also registered a Depolarization in the assay with intact CRAB bacteria of 75.6%. Also, the “Minimal inhibitory concentration (MIC), A. baumannii” value in assay [5] was found to be 4 µM (≈ 11.4 µg/mL). The “Minimal inhibitory concentration (MIC), P. aeruginosa” value in assay [6] was found to be 16 µM (≈ 45.5 µg/mL). Besides, the “Minimal inhibitory concentration (MIC), CRKP 15782” value in [7] came to 32 µM (≈ 91.1 µg/mL). Also, the “Minimal inhibitory concentration (MIC), K. pneumonia” value in [8] stood at 32 µM (≈ 91.1 µg/mL).

`C[C@@H](O)[C@H]1C(=O)N2C(C(=O)O)=C(S[C@@H]3CN[C@H](C(=O)N(C)C)C3)[C@H](C)[C@H]12` [Meropenem]: the “Biofilm formation inhibition, CRAB 12006” value in the assay on CRAB 12006 was “remarkably lower”. Also, the MIC in assay [4] (Escherichia coli, KCTC1682) was determined as 0.25 µM (≈ 0.0959 µg/mL); in [9] (Escherichia coli), 8 µM (≈ 3.07 µg/mL).
